Patent US20250344734A1, “UNSATURATED FATTY ACIDS AND THEIR USE TO MODIFY TASTE” (Firmenich Incorporated, priority 2022, published 2025)

Experiments:
Assay type in all cases: cell-based
T2R01 (TAS2R01) = target: T1, T2R01 (TAS2R01) (Homo sapiens, UniProt Q9NYW7); experiment: FLIPR calcium assay, block of bitter agonist response, T2R01; conditions: unsaturated fatty acid concentration of 200 µM, cells stimulated with known bitter agonist, read-out: percentage block of cellular response over baseline, 01
T1 construct: expressed in transfected cells; host or cells: cells expressing a promiscuous G protein (e.g., G16g44)
T1 sequence (Q9NYW7 1-299): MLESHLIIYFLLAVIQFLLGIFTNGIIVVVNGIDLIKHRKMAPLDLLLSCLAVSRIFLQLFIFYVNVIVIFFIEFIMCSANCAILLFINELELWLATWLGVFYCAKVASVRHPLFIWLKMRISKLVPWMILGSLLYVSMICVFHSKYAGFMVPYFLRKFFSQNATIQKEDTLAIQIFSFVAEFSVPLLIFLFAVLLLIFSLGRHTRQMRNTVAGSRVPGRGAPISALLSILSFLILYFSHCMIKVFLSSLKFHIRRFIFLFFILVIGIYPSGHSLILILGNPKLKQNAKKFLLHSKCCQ
Description: (§1) Cells expressing a promiscuous […] (e.g., G16g44) were transfected with vectors encoding 18 functional bitter receptor cDNAs, with one receptor per transfection. The cells were transfected directly in 384-well format high-density plates and incubated for 28 hours. Later, cells were loaded with the Ca-specific dye Fluo4-AM. After an incubation of 60 minutes, excess dye is washed off, and cells are stimulated with a known bitter agonist for each receptor and various unsaturated fatty acids. Changes in intracellular fluorescence are recorded using a FLIPR instrument. Bitter antagonists and corresponding receptors are identified based on percentage inhibition of agonist's activity on a given receptor.
(§2) The above protocol was carried out using 16 different unsaturated fatty acids. A particular T2R receptor was identified as being antagonized by a particular unsaturated fatty acid if it triggered a >25% block of agonist's cellular response at 200 μM concentration of unsaturated fatty acid. […] Table 2 indicates the sixteen (16) compounds tested by their compound number from Table 1 above. The 18 bitter taste receptors screened are the human bitter taste receptors we named. T2R01 (TAS2R01), T2R03 (TAS2R03), T2R04 (TAS2R04), T2R07 (TAS2R07), T2R08 (TAS2R08), T2R09 (TAS2R09), T2R10 (TAS2R10), T2R13 (TAS2R13), T2R14 (TAS2R14), T2R16 (TAS2R16), T2R54 (TAS2R39, T2R61 (TAS2R43), T2R63 (TA2R20), T2R64 (TAS2R31), T2R65 (TAS2R19), T2R67 (TAS2R50), T2R71 (TAS2R41), and T2R75 (TAS2R46). The corresponding IUPHAR nomenclature for each receptor is given in parenthesis. In Table 2, these receptors are identified by the last two digits. For example, T2R01 is indicated as 01. Table 2 reports the percentage block of cellular response over baseline at an unsaturated fatty acid concentration of 200 µM.

T2R04 (TAS2R04) = target: T2, T2R04 (TAS2R04) (Homo sapiens, UniProt Q9NYW5); experiment: FLIPR calcium assay, block of bitter agonist response, T2R04; conditions: unsaturated fatty acid concentration of 200 µM, cells stimulated with known bitter agonist
T2 construct: expressed in transfected cells; host or cells: cells expressing a promiscuous G protein (e.g., G16g44)
T2 sequence (Q9NYW5 1-299): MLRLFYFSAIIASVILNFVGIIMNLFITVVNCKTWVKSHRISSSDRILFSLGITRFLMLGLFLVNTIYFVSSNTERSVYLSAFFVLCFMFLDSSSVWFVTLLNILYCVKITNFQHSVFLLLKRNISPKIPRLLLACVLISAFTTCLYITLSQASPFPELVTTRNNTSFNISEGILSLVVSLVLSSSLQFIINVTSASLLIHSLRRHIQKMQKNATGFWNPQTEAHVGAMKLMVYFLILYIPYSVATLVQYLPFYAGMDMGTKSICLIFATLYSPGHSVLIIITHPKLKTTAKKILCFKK
Description: as §1
(§3) The above protocol was carried out using 16 different unsaturated fatty acids. A particular T2R receptor was identified as being antagonized by a particular unsaturated fatty acid if it triggered a >25% block of agonist's cellular response at 200 μM concentration of unsaturated fatty acid. […] Table 2 indicates the sixteen (16) compounds tested by their compound number from Table 1 above. The 18 bitter taste receptors screened are the human bitter taste receptors we named. […]

T2R09 (TAS2R09) = target: T3, T2R09 (TAS2R09) (Homo sapiens, UniProt Q9NYW1); experiment: FLIPR calcium assay, block of bitter agonist response, T2R09; conditions: unsaturated fatty acid concentration of 200 µM, cells stimulated with known bitter agonist
T3 construct: expressed in transfected cells; host or cells: cells expressing a promiscuous G protein (e.g., G16g44)
T3 sequence (Q9NYW1 1-312): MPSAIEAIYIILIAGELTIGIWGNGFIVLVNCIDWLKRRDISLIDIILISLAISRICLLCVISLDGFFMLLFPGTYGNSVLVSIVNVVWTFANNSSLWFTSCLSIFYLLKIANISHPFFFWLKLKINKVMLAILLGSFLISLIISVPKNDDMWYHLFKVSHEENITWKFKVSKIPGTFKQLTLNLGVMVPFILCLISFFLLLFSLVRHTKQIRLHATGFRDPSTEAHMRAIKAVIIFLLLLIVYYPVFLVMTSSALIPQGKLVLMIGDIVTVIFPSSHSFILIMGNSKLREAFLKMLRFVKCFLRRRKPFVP
Description: as §1, §3

T2R64 (TAS2R31) = target: T4, T2R64 (TAS2R31) (Homo sapiens, UniProt P59538); experiment: FLIPR calcium assay, block of bitter agonist response, T2R64; conditions: unsaturated fatty acid concentration of 200 µM, cells stimulated with known bitter agonist
T4 construct: expressed in transfected cells; host or cells: cells expressing a promiscuous G protein (e.g., G16g44)
T4 sequence (P59538 1-309): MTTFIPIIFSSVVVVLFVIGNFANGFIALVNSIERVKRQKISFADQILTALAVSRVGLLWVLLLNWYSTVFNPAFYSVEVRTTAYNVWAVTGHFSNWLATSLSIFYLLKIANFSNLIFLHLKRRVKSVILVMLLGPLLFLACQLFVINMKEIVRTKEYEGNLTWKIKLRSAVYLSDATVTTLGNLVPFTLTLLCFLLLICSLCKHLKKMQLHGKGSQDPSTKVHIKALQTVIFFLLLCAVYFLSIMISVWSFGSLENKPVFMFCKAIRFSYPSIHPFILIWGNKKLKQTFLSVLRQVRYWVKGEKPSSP
Description: as §1, §3

T2R65 (TAS2R19) = target: T5, T2R65 (TAS2R19) (Homo sapiens, UniProt P59542); experiment: FLIPR calcium assay, block of bitter agonist response, T2R65; conditions: unsaturated fatty acid concentration of 200 µM, cells stimulated with known bitter agonist
T5 construct: expressed in transfected cells; host or cells: cells expressing a promiscuous G protein (e.g., G16g44)
T5 sequence (P59542 1-299): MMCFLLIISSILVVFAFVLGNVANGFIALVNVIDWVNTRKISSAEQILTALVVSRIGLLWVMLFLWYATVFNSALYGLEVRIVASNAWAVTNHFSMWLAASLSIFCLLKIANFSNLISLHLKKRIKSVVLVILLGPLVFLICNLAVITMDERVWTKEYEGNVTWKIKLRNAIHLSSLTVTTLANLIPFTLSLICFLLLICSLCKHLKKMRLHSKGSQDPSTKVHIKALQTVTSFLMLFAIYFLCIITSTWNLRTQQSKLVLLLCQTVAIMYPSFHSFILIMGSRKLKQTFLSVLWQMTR
Description: as §1, §3

T2R75 (TAS2R46) = target: T6, T2R75 (TAS2R46) (Homo sapiens, UniProt P59540); experiment: FLIPR calcium assay, block of bitter agonist response, T2R75; conditions: unsaturated fatty acid concentration of 200 µM, cells stimulated with known bitter agonist
T6 construct: expressed in transfected cells; host or cells: cells expressing a promiscuous G protein (e.g., G16g44)
T6 sequence (P59540 1-309): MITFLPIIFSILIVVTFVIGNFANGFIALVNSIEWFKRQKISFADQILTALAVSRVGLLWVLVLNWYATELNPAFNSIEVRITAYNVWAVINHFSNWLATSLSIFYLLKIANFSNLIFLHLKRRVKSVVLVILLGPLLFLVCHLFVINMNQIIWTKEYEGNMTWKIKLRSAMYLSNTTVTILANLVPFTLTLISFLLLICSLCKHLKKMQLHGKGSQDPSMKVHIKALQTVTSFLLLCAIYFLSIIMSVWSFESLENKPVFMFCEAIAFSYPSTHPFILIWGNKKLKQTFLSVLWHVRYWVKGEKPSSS
Description: as §1, §2

inhibition at 200 µM (T2R01 (TAS2R01)): 40% | percentage block of cellular response over baseline, 04 (T2R04 (TAS2R04)): >90% | percentage block of cellular response over baseline, 09 (T2R09 (TAS2R09)): 30% | percentage block of cellular response over baseline, 64 (T2R64 (TAS2R31)): >85% | percentage block of cellular response over baseline, 65 (T2R65 (TAS2R19)): >35% | percentage block of cellular response over baseline, 75 (T2R75 (TAS2R46)): 50%
SMILES: CC(C)=CCC/C(C)=C/C(=O)O [Compound 129]
